From patent US20180207105A1, “METHOD FOR MANUFACTURING A THERAPEUTIC AGENT FOR USE IN THE TREATMENT OF INFECTIONS” (AGA NANOTECH LTD, priority 2014, published 2018)

Assay: pH of solutions of the active ingredients alone dissolved in ultrapure water
Type: physicochemical
[1] = 17.5 mg/ml (1.75 wt %) in ultrapure water
[2] = 35 mg/ml (3.5 wt %) in ultrapure water
[3] = 70 mg/ml (7 wt %) in ultrapure water
[4] = 140 mg/ml (14 wt %) in ultrapure water
[5] = 280 mg/ml (28 wt %) in ultrapure water

| SMILES | pH of solution [1] | pH of solution [2] | pH of solution [3] | pH of solution [4] | pH of solution [5] |
| --- | --- | --- | --- | --- | --- |
| NC(N)=O.OO [Urea Hydrogen Peroxide, urea hydrogen peroxide] | 7.90 | 6.92 | 6.9 | 6.38 | 4.97 |
| O=C([O-])[O-].O=C([O-])[O-].OO.OO.OO.[Na+].[Na+].[Na+].[Na+] [Sodium Percarbonate, Sodium percarbonate] | 10.83 | 10.89 | 10.87 | 10.83 | 10.74 |
